Consider four compounds from PubChem BioAssay (NCI).

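Each compound was tested at five concentrations against cells in 96-well plates for 48 hours. TGI: total growth inhibition.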 Some results are limits rather than exact numbers.

The subject of one test is 786-0 renal. Put plainly: inhibition of tumour cell growth, NCI panel, 48 h.
`COc1cc(C2c3cc4c(cc3OC(C)(O)C2C)OCO4)cc(OC)c1OC` (configuration not stated) gave a TGI above 100 µM.
Same read-out and setting: for `COC(=O)C1=C(C)NC(C)=C(C(=O)OCCCN2CCC(c3ccccc3)(c3ccccc3)CC2)C1c1cccc([N+](=O)[O-])c1` (configuration not stated) the value was 2.99 µM.
The compound `CC1=NN(c2cccc(Cl)c2)C2(SCC(=O)N2c2nc3ccccc3s2)/C1=C\c1ccccc1O` (configuration not stated) returned a TGI of 32.3 µM.

Another test concerns A498 renal. The test is described as follows: inhibition of tumour cell growth, NCI panel, 48 h.
For the compound `COc1cc(C2c3cc4c(cc3OC(C)(O)C2C)OCO4)cc(OC)c1OC` (configuration not stated), the TGI is above 100 µM.
The same measure, in the same setting: the figure for `COC(=O)C1=C(C)NC(C)=C(C(=O)OCCCN2CCC(c3ccccc3)(c3ccccc3)CC2)C1c1cccc([N+](=O)[O-])c1` (configuration not stated) is 8.69 µM.
Same read-out and setting: for `CC1=NN(c2cccc(Cl)c2)C2(SCC(=O)N2c2nc3ccccc3s2)/C1=C\c1ccccc1O` (configuration not stated) the value was 38.4 µM; for `O=C(Nc1nccs1)c1c(O)nc2sccn2c1=O`, above 10 µM.

The next test relates to A549 NSCLC. The test is described as follows: inhibition of tumour cell growth, NCI panel, 48 h.
`COc1cc(C2c3cc4c(cc3OC(C)(O)C2C)OCO4)cc(OC)c1OC` (configuration not stated) had a TGI of 0.761 µM.
Take `COC(=O)C1=C(C)NC(C)=C(C(=O)OCCCN2CCC(c3ccccc3)(c3ccccc3)CC2)C1c1cccc([N+](=O)[O-])c1` (configuration not stated): the TGI was found to be 3.41 µM.
Same read-out and setting: for `O=C(Nc1nccs1)c1c(O)nc2sccn2c1=O` the value was above 10 µM.

A further test relates to ACHN renal. The test is described as follows: inhibition of tumour cell growth, NCI panel, 48 h.
In turn, `COc1cc(C2c3cc4c(cc3OC(C)(O)C2C)OCO4)cc(OC)c1OC` (configuration not stated) returned a TGI above 100 µM.
Still for that read-out and setting: the figure for `COC(=O)C1=C(C)NC(C)=C(C(=O)OCCCN2CCC(c3ccccc3)(c3ccccc3)CC2)C1c1cccc([N+](=O)[O-])c1` (configuration not stated) is 3.05 µM; for `CC1=NN(c2cccc(Cl)c2)C2(SCC(=O)N2c2nc3ccccc3s2)/C1=C\c1ccccc1O` (configuration not stated) it is 49 µM; for `O=C(Nc1nccs1)c1c(O)nc2sccn2c1=O` it is above 10 µM.

A further test relates to BT-549 breast. Put plainly: inhibition of tumour cell growth, NCI panel, 48 h.
`COc1cc(C2c3cc4c(cc3OC(C)(O)C2C)OCO4)cc(OC)c1OC` (configuration not stated) displayed a TGI above 100 µM.

For a further test, the system named is CAKI-1 renal. Put plainly: inhibition of tumour cell growth, NCI panel, 48 h.
With `COc1cc(C2c3cc4c(cc3OC(C)(O)C2C)OCO4)cc(OC)c1OC` (configuration not stated), the TGI is above 100 µM.
The same measure, in the same setting: the figure for `COC(=O)C1=C(C)NC(C)=C(C(=O)OCCCN2CCC(c3ccccc3)(c3ccccc3)CC2)C1c1cccc([N+](=O)[O-])c1` (configuration not stated) is 11.8 µM.
In turn, `CC1=NN(c2cccc(Cl)c2)C2(SCC(=O)N2c2nc3ccccc3s2)/C1=C\c1ccccc1O` (configuration not stated) registered a TGI of 57.5 µM.
Still for that read-out and setting: the figure for `O=C(Nc1nccs1)c1c(O)nc2sccn2c1=O` is above 10 µM.

Another test deals with CCRF-CEM leukemia. Put plainly: inhibition of tumour cell growth, NCI panel, 48 h.
For `COc1cc(C2c3cc4c(cc3OC(C)(O)C2C)OCO4)cc(OC)c1OC` (configuration not stated), the TGI stood at 16.6 µM.
Still for that read-out and setting: for `COC(=O)C1=C(C)NC(C)=C(C(=O)OCCCN2CCC(c3ccccc3)(c3ccccc3)CC2)C1c1cccc([N+](=O)[O-])c1` (configuration not stated) the value was above 100 µM.
`CC1=NN(c2cccc(Cl)c2)C2(SCC(=O)N2c2nc3ccccc3s2)/C1=C\c1ccccc1O` (configuration not stated) showed a TGI above 100 µM.
In the case of `O=C(Nc1nccs1)c1c(O)nc2sccn2c1=O`, the TGI is above 10 µM.

The next test deals with COLO 205 colon. Put plainly: inhibition of tumour cell growth, NCI panel, 48 h.
Regarding `COc1cc(C2c3cc4c(cc3OC(C)(O)C2C)OCO4)cc(OC)c1OC` (configuration not stated), the TGI is above 100 µM.
The same measure, in the same setting: the figure for `COC(=O)C1=C(C)NC(C)=C(C(=O)OCCCN2CCC(c3ccccc3)(c3ccccc3)CC2)C1c1cccc([N+](=O)[O-])c1` (configuration not stated) is 3.08 µM.
Still for that read-out and setting: the figure for `O=C(Nc1nccs1)c1c(O)nc2sccn2c1=O` is above 10 µM.

In the next test the test system is DU-145 prostate. Put plainly: inhibition of tumour cell growth, NCI panel, 48 h.
Compound `COc1cc(C2c3cc4c(cc3OC(C)(O)C2C)OCO4)cc(OC)c1OC` (configuration not stated) returned a TGI above 100 µM.
Still for that read-out and setting: the figure for `COC(=O)C1=C(C)NC(C)=C(C(=O)OCCCN2CCC(c3ccccc3)(c3ccccc3)CC2)C1c1cccc([N+](=O)[O-])c1` (configuration not stated) is 3.31 µM.
The same measure, in the same setting: for `CC1=NN(c2cccc(Cl)c2)C2(SCC(=O)N2c2nc3ccccc3s2)/C1=C\c1ccccc1O` (configuration not stated) the value was 42.2 µM; for `O=C(Nc1nccs1)c1c(O)nc2sccn2c1=O`, above 10 µM.

For another test, the system named is EKVX NSCLC. Put plainly: inhibition of tumour cell growth, NCI panel, 48 h.
For `COc1cc(C2c3cc4c(cc3OC(C)(O)C2C)OCO4)cc(OC)c1OC` (configuration not stated), the TGI is above 100 µM.
The same measure, in the same setting: the figure for `COC(=O)C1=C(C)NC(C)=C(C(=O)OCCCN2CCC(c3ccccc3)(c3ccccc3)CC2)C1c1cccc([N+](=O)[O-])c1` (configuration not stated) is 6.42 µM; for `CC1=NN(c2cccc(Cl)c2)C2(SCC(=O)N2c2nc3ccccc3s2)/C1=C\c1ccccc1O` (configuration not stated) it is above 100 µM.
Still for that read-out and setting: for `O=C(Nc1nccs1)c1c(O)nc2sccn2c1=O` the value was above 10 µM.

The test system of the next test is HCC-2998 colon. The test is described as follows: inhibition of tumour cell growth, NCI panel, 48 h.
For the compound `COc1cc(C2c3cc4c(cc3OC(C)(O)C2C)OCO4)cc(OC)c1OC` (configuration not stated), the TGI is above 100 µM.
Turning to `COC(=O)C1=C(C)NC(C)=C(C(=O)OCCCN2CCC(c3ccccc3)(c3ccccc3)CC2)C1c1cccc([N+](=O)[O-])c1` (configuration not stated), the TGI turned out to be 4.58 µM.
Still for that read-out and setting: for `CC1=NN(c2cccc(Cl)c2)C2(SCC(=O)N2c2nc3ccccc3s2)/C1=C\c1ccccc1O` (configuration not stated) the value was 42 µM.
The same measure, in the same setting: the figure for `O=C(Nc1nccs1)c1c(O)nc2sccn2c1=O` is above 10 µM.

In a further test the test system is HCT-116 colon. Put plainly: inhibition of tumour cell growth, NCI panel, 48 h.
Regarding `COc1cc(C2c3cc4c(cc3OC(C)(O)C2C)OCO4)cc(OC)c1OC` (configuration not stated), the TGI amounted to 75.2 µM.
Take `COC(=O)C1=C(C)NC(C)=C(C(=O)OCCCN2CCC(c3ccccc3)(c3ccccc3)CC2)C1c1cccc([N+](=O)[O-])c1` (configuration not stated): the TGI was found to be 2.86 µM.
Still for that read-out and setting: the figure for `CC1=NN(c2cccc(Cl)c2)C2(SCC(=O)N2c2nc3ccccc3s2)/C1=C\c1ccccc1O` (configuration not stated) is 28.2 µM; for `O=C(Nc1nccs1)c1c(O)nc2sccn2c1=O` it is above 10 µM.

The subject of a further test is HCT-15 colon. Put plainly: inhibition of tumour cell growth, NCI panel, 48 h.
Compound `COc1cc(C2c3cc4c(cc3OC(C)(O)C2C)OCO4)cc(OC)c1OC` (configuration not stated) gave a TGI above 100 µM.
Take `COC(=O)C1=C(C)NC(C)=C(C(=O)OCCCN2CCC(c3ccccc3)(c3ccccc3)CC2)C1c1cccc([N+](=O)[O-])c1` (configuration not stated): the TGI is 3.19 µM.
Still for that read-out and setting: the figure for `CC1=NN(c2cccc(Cl)c2)C2(SCC(=O)N2c2nc3ccccc3s2)/C1=C\c1ccccc1O` (configuration not stated) is 34.1 µM.
The same measure, in the same setting: the figure for `O=C(Nc1nccs1)c1c(O)nc2sccn2c1=O` is above 10 µM.

Another test relates to HL-60(TB) leukemia. The test is described as follows: inhibition of tumour cell growth, NCI panel, 48 h.
Turning to `COc1cc(C2c3cc4c(cc3OC(C)(O)C2C)OCO4)cc(OC)c1OC` (configuration not stated), the TGI is 0.53 µM.
For the compound `COC(=O)C1=C(C)NC(C)=C(C(=O)OCCCN2CCC(c3ccccc3)(c3ccccc3)CC2)C1c1cccc([N+](=O)[O-])c1` (configuration not stated), the TGI came out at 75 µM.
Turning to `CC1=NN(c2cccc(Cl)c2)C2(SCC(=O)N2c2nc3ccccc3s2)/C1=C\c1ccccc1O` (configuration not stated), the TGI amounted to 52.1 µM.
The same measure, in the same setting: the figure for `O=C(Nc1nccs1)c1c(O)nc2sccn2c1=O` is above 10 µM.

The next test relates to HOP-62 NSCLC. Put plainly: inhibition of tumour cell growth, NCI panel, 48 h.
In turn, `COc1cc(C2c3cc4c(cc3OC(C)(O)C2C)OCO4)cc(OC)c1OC` (configuration not stated) yielded a TGI above 100 µM.
Consider `COC(=O)C1=C(C)NC(C)=C(C(=O)OCCCN2CCC(c3ccccc3)(c3ccccc3)CC2)C1c1cccc([N+](=O)[O-])c1` (configuration not stated), for which the TGI stood at 9.16 µM.
